Results taken from patent US20250282819A1, “MITOCHONDRIA-[…] PEPTIDE THAT CAN BE […] DELIVERED AT NANOMOLAR CONCENTRATION, AND USE THEREOF” (CAMP THERAPEUTICS INC., priority 2021, published 2025).
Where a SMILES comes first, the peptide text is derived from it.

Experiments:
HeLa cells [1] = assay type: cell-based
Experimental: Cell-penetrating ability was evaluated using the fluorescently-labeled versions of the dimeric bundle peptides synthesized in Example 3, and measured as EC50 values according to the method described in Experimental Example 3.
1×10^5 HeLa cells were seeded into a 24-well plate. After 24 hours, the peptide was added to the cells and further incubation was performed for 3 hours. The incubated cells were harvested, washed with PBS, suspended in PBS, and then analyzed by fluorescence-activated cell sorting (FACS; BD Accuri, USA). The cells whose fluorescence intensity exceeds the maximum intensity of untreated cells were classified as fluorescence-positive cells.

[2] = Oligomerization tendency by HPLC retention time at 40 and 5° C.; assay type: physicochemical; details: 10 μl of 0.2 mM peptide
Experimental: Specifically, 10 μl of each peptide solution at 0.2 mM was injected into HPLC, and the time at which the peptide was detected (RT) was measured at 40° C. and 5° C., respectively. Here, the stationary phase and mobile phase conditions of the HPLC were set using well-known methods. In general, the better the oligomer is formed, the detection time becomes longer at 40° C., which is a relatively higher temperature, thereby resulting in larger ΔΔRT that is a difference from the value measured at 5° C.

HeLa cells [3] = assay: Mitochondria-targeting ability by mitochondrial fractionation; assay type: cell-based; details: EC50 concentration
Experimental: To determine at what rate the dimeric bundle peptides according to the present disclosure target mitochondria, mitochondrial fractionation was performed according to the method described in Experimental Example 4. […] Then, the cells were harvested and fractionation was performed.
Cell-penetrating ability was performed according to the method described in Experimental Example 3, and mitochondria-targeting ability was assessed by mitochondrial fractionation according to the method described in Experimental Example 4. In addition to SS-31 as a conventional peptide, a mitochondrial-penetrating peptide of Kelly's group (MPP1a; see Horton, Kristin L et al. “Mitochondria-penetrating peptides.” Chemistry & biology vol. 15, 4 (2008): 375-82) was used as an additional comparison group. The amino acid sequence of MPP1a is as follows: X(dR)XKX(dR)XK (where X is cyclohexylalanine, dR is D-arginine, and K is lysine).
Intracellular distribution of peptides was detected using the mitochondria isolation method. […] The cells were harvested, washed with cold PBS, and suspended in cold IB (30 mM Tris-HCl, pH 7.4; 225 mM mannitol; 75 mM sucrose; and 0.1 mM EGTA). […] Lysed cells were monitored under a light microscope. […] The fluorescence intensity of each fraction was measured by using a microplate reader [TECAN, Switzerland; excitation (Ex)/emission (Em)=510/570 nm].

HeLa cells [4] = assay: Cristae protecting ability by TEM; assay type: cell-based; details: 50 or 100 nM 2 hours, then 0.5 mM H2O2 2 hours
Source text: In order to determine the mode of action of the peptide according to the disclosure, attenuation of cristae number in mitochondria was examined in relation to impaired mitochondrial function caused by H2O2 treatment. In other words, it was investigated whether promotion of normal mitochondrial function caused by CMP3013 was related to preservation of cristae structure. To evaluate this protective effect, transmission electron microscopy (TEM) images were used to observe changes in the shape and number of cristae in damaged HeLa cells in the presence or absence of CMP3013.
1.8×10^6 HeLa cells were fixed with modified Karnovsky fixative [2% paraformaldehyde and 2% glutaraldehyde dissolved in […]] at 4° C. for 3 hours. A sample was washed three times with […] sodium cacodylate buffer (pH 7.2) at 4° C. for 10 minutes, and then post-fixed at 4° C. for 2 hours with 1% osmium tetroxide dissolved in […] sodium cacodylate buffer (pH 7.2). The sample was then washed twice briefly with distilled water. Subsequently, the sample was then en bloc stained with 0.5% uranyl acetate at 4° C. overnight. […]

CC(=O)N[C@@H](CC1CCCCC1)C(=O)N[C@H]1CSSC[C@@H](C(=O)N[C@@H](CCCNC(=N)N)C(N)=O)NC(=O)[C@H](CC2CCCCC2)NC(=O)[C@H](CCCNC(=N)N)NC(=O)[C@H](CCCNC(=N)N)NC(=O)[C@H](CC2CCCCC2)NC(=O)[C@H](CC(C)C)NC(=O)[C@H](CCCNC(=N)N)NC(=O)[C@@H](NC(=O)[C@H](CC2CCCCC2)NC(C)=O)CSSC[C@@H](C(=O)N[C@@H](CCCNC(=N)N)C(N)=O)NC(=O)[C@H](CC2CCCCC2)NC(=O)[C@H](CCCNC(=N)N)NC(=O)[C@H](CCCNC(=N)N)NC(=O)[C@H](CC2CCCCC2)NC(=O)[C@H](CC(C)C)NC(=O)[C@H](CCCNC(=N)N)NC1=O [CMP3013] (HELM PEPTIDE1{[ac].[Cha].C.R.L.[Cha].R.R.[Cha].C.R.[am]}|PEPTIDE2{[ac].[Cha].C.R.L.[Cha].R.R.[Cha].C.R.[am]}$PEPTIDE1,PEPTIDE2,3:R3-10:R3|PEPTIDE1,PEPTIDE2,10:R3-3:R3$$$V2.0)
improvement in cell penetration rate as compared with SS-31 (HeLa cells [1]): approximately 100 fold
level of EC50 value (cell-penetrating ability) (HeLa cells [1]; comparison of CMP3013, LR10, MPP1a, SS-31): lowest EC50 value
Oligomerization tendency (RT at 40-5° C.) ΔΔRT [2]: 2.683 min
mitochondrial/cytoplasmic abundance ratio (M/C ratio) (HeLa cells [3]): 4.1
rank of percentage in the mitochondrial fraction (HeLa cells [3]; 3 hours): highest percentage in the mitochondrial fraction
number of cristae structures (TEM) (HeLa cells [4]): same number of normal cristae structures as in the control group with no treatment
